In US8791094B2, “Treatment of prostate cancer” (Tokai Pharmaceuticals, Inc., priority 2009, dated 2014):
pIC50: −log10 of the molar value.

Columns and labels:
LAPC-4 = experiment: Inhibition of testosterone-induced proliferation, LAPC-4; format: cell-based, human; conditions: LAPC-4 stimulated with 1 nM DHT
Protocol: (§1) Human prostate cancer cell lines (LNCaP and LAPC-4) were grown in culture and stimulated with 1 nM dihydrotestosterone (DHT). This concentration of DHT stimulated the proliferation of prostate cancer cells.

[1] = Nonclinical safety evaluation (cell-based and animal models); conditions: nonclinical data
From the text: This is a first-in-man trial of Compound 1 and potential toxic effects in humans are not yet fully known. […] An additional known class effect, apparent mineralocorticoid excess (AME), was not seen in nonclinical studies. This trial has been designed with the adverse nonclinical findings, theoretical MOA, and consideration of known class effect issues in mind. The trial evaluates potential clinical benefit and provides proof of concept while minimizing risk to subjects.

CYP17 = molecular target: T1, CYP17 (Homo sapiens, UniProt P05093); experiment: Inhibition of lyase activity (CYP17); format: biochemical; conditions: CYP17 expressed by transfected E. coli; radiolabelled 17α-hydroxypregnenolone substrate
T1 construct: made in house; host or cells: E. coli
T1 sequence (P05093 1-508): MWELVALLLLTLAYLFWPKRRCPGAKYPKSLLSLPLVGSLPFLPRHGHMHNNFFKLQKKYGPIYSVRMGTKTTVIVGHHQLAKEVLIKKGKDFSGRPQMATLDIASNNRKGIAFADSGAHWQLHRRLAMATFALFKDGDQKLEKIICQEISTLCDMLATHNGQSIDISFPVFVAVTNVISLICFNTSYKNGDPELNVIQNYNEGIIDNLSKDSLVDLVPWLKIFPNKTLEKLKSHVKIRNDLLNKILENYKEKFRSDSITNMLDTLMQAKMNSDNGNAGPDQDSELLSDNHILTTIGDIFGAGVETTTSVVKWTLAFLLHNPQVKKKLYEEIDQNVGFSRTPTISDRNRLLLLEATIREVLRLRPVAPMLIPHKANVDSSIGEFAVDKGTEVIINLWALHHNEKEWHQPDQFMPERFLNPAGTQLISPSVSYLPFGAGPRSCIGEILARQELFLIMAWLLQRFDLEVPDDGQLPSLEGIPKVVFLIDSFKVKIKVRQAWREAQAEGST
Protocol: Intact CYP17 expressed by transfected E. coli was isolated and purified as an enzyme source. Radiolabelled 17α-hydroxypregnenolone as the substrate. CYP17 activity was measured by the amount of tritiated acetic acid formed during the cleavage of the C-21 side chain of the substrate.

[2] = In vitro safety testing: genotoxicity
[3] = Chronic administration toxicity in rats; format: in vivo; conditions: administered chronically to rats
PSA = experiment: Clinical study in chemotherapy naive CRPC: PSA response; format: in vivo, human
Protocol: The primary efficacy endpoint is the percent of subjects with 50% or greater decrease in PSA from baseline to 12 weeks, or PSA nadir (whichever comes first). Frequency and percentage are calculated for each treatment group. The primary analysis is also repeated using the PP Population.
A clinical study was performed according to the protocol of Example 6. Compound (1) was administered to four cohorts, each in a different amount.

[4] = tested on: LAPC4 prostate cancer cell tumors; experiment: Growth of human prostate cancer xenografts in SCID mice; format: in vivo
Protocol: Xenografts of LAPC4 prostate cancer cell tumors were implanted in SCID mice. […] Tumor size was measured weekly and compared with control mice that received vehicle, Casodex® or castration only.

LNCaP = experiment: Inhibition of testosterone-induced proliferation, LNCaP; format: cell-based, human; conditions: LNCaP stimulated with 1 nM DHT
Protocol: as §1

cytochrome P450 systems = experiment: In vitro safety testing: cytochrome P450 systems; format: in vitro ADME
in vivo = conditions: dog
From the text: On an AUC basis the human starting dose is predicted to be 16 times lower than the NOAEL dose in dogs.

off-target receptors = experiment: In vitro safety testing: off-target receptors; format: binding
[5] = Oral bioavailability (nonclinical); conditions: in vivo

C[C@]12CC[C@H](O)CC1=CCC1C2CC[C@]2(C)C(n3cnc4ccccc43)=CCC12 (stereo partly drawn) [Compound (1), 3-β-Hydroxy-17-(1H-benzimidazol-1-yl)androsta-5,16-diene]
inhibition of testosterone induced proliferation (LAPC-4): dose-dependent inhibition | only safety signal seen [1]: hepatoxicity | toxicity in cell-based and animal models [1]: minimal toxicity | pIC50 (CYP17): 6.52 | genotoxicity [2]: does not have genotoxicity | toxic responses [3]: fails to elicit toxic responses | Percentage of Patients With a PSA Response (PSA; Cohort 1, 650 mg/day, 6 patients treated): 67% (4) | Percentage of Patients With a PSA Response (PSA; Cohort 2, 975 mg/day, 6 patients treated): 67% (4) | Percentage of Patients With a PSA Response (PSA; Cohort 3, 1300 mg/day, 6 patients treated): 83% (5) | Percentage of Patients With a PSA Response (PSA; Cohort 4, 1950 mg/day, 7 patients treated): 71% (5) | tumor growth ([4]; 50 mg/kg BW SC twice daily, compared with castration): comparable or more pronounced decrease in tumor growth compared to castration | size of androgen dependent human prostate tumors ([4]; SCID mouse models, levels corresponding to human subcutaneous doses of 140, 280, and 560 mg): dramatic reduction | inhibition of testosterone induced proliferation (LNCaP): dose-dependent inhibition | interference with activity of cytochrome P450 systems known to metabolize many drugs (cytochrome P450 systems): does not interfere | NOAEL (in vivo): 150 mg/kg | interaction with off-target receptors (off-target receptors): only at high micromolar concentrations | oral bioavailability [5]: orally bioavailable
